Data: BigSolDB 2.1

NC(=O)N/N=C/c1ccc([N+](=O)[O-])o1
solubility (mole fraction)
Settings | in DMF | in acetone | in acetonitrile | in ethanol | in ethyl acetate | in formamide | in isopropanol | in methanol | in n-propanol | in water
278.15 K | 0.0194 | 0.000291 | 7.32e-05 | 5.89e-05 | 7.69e-05 | 0.00131 | 2.66e-05 | 0.000137 | 3.6e-05 | 4.23e-06
283.15 K | 0.0202 | 0.000339 | 9.44e-05 | 7.3e-05 | 8.31e-05 | 0.00154 | 3.27e-05 | 0.000168 | 4.98e-05 | 5.75e-06
288.15 K | 0.0207 | 0.00038 | 0.000116 | 8.98e-05 | 9.59e-05 | 0.00178 | 4.03e-05 | 0.000198 | 5.29e-05 | 8.03e-06
293.15 K | 0.0223 | 0.000435 | 0.000146 | 0.000112 | 0.000116 | 0.00205 | 5.09e-05 | 0.000238 | 6.62e-05 | 1.07e-05
298.15 K | 0.023 | 0.000501 | 0.000168 | 0.000136 | 0.00013 | 0.0024 | 6.47e-05 | 0.000284 | 8.61e-05 | 1.27e-05
303.15 K | 0.0255 | 0.00056 | 0.000204 | 0.000165 | 0.000151 | 0.00273 | 8.79e-05 | 0.000338 | 0.000108 | 1.53e-05
308.15 K | 0.0265 | 0.000641 | 0.000246 | 0.000203 | 0.000172 | 0.00313 | 0.000116 | 0.000404 | 0.000139 | 2.05e-05
313.15 K | 0.0279 | 0.000749 | 0.000293 | 0.000247 | 0.000202 | 0.00359 | 0.000151 | 0.000478 | 0.000164 | 2.68e-05
